Legend:
Format in all cases: cell-based
SSTR2 = target: T1, SSTR2 (Homo sapiens, UniProt P30874); assay: SSTR2 cAMP test; details: Max Dose 50000 nM
T1 construct: expressed in transfected cells; host or cells: CHO cells (SSTR2/CHO)
Procedure: • 1) Compound preparation: The test compound was diluted by 4-fold with DMSO to obtain 10 different concentration points. Approximately 100 nL of the diluted compound was then transferred to a cell reaction plate and centrifuged for later use. • 2) Cell preparation:The cultured SSTR2/CHO cells were collected into a sterile centrifuge tube, and the supernatant was discarded by centrifugation. • 3) The cells were resuspended in assay buffer, counted using a Vi-cell counter, and diluted with assay buffer. • 4) Approximately 100 nL of 100 µM Forskolin was transferred into the cell reaction plate using an Echo and centrifuged. Then, 10 µL of assay buffer containing the cells was added and incubated. • 5) Approximately 10 µL of cAMP detection reagent solution was added to the corresponding wells of the cell reaction plate, and incubated at room temperature in the dark. • 6) The plate was read using a microplate reader. The final value was determined as the ratio of OD at 665 nm to that at 615 nm. • 7) The cAMP value was calculated for each well: Activity (%)=(signal value of sample well - mean signal value of low-signal control wells)/ (mean signal value of high-signal control wells - mean signal value of low-signal control wells). Fitting was performed using the "Nonlinear regression (curve fit)-log(agonist) vs. response -- Variable slope" model in GraphPad Prism 5.0, with the log-transformed compound concentration on the x-axis and cAMP activation rate on the y-axis. The EC50 value of the sample was calculated accordingly. Table 2: SSTR2 cAMP Test Results

NCI-H69 = assay: Cell killing in NCI-H69 by CGT (CellTiter-Glo); details: NCI-H69, 96 h; Inh% relative to DMSO control, 4-parameter fit
Procedure: Approximately 5 µL of the PDC was added to the corresponding wells of the plate, and compared with DMSO (control, without the PDC of the present application), PTX, MMAE, and Dxd wells. The final concentration of DMSO in each well was 0.2%; • (5) The cells were incubated in a 5% CO2 incubator at 37°C for 96 h; • (6) The cell culture plate was equilibrated to room temperature, and 50 µL of CellTiter-Glo® Reagent was added to each well; • (7) The plate was placed on a shaker for 2 min to ensure complete cell lysis; • (8) After mixing, the plate was placed at room temperature to react for 10 min. The fluorescence value (in RLU) was read when the signal became stable. • c) Data analysis • (1) The inhibition (Inh %) relative to the DMSO control was calculated as follows: Inhibition (Inh%)= 100 -(RLU of compound - RLU of DMSO control)/ (RLU of DMSO control - RLU of blank)*100% • (2) The data were analyzed using Graphpad 5.0 software. A 4-parameter equation was fitted to generate a concentration-response curve to obtain the IC50. Table 3: Test Results of Cell Killing in NCI-H69

HL-60 = assay: Cell killing in HL-60 by CCK-8; details: HL-60, 48 h
Procedure: • a) Cell line: HL-60 • b) Procedure • (1) Normally cultured HL-60 cells in the logarithmic growth phase were centrifuged at 800 rpm for 5 min to discard the supernatant. Approximately 3 mL of normal medium was added to resuspend the cell pellet by gently pipetting up and down. The cells were then counted using a cell counter and inoculated onto a 96-well plate. • (2) Sample solutions with different concentration gradients were prepared. Approximately 10 µL of each solution was added to the 96-well plate, with 3 to 6 replicate wells for each concentration, and incubated in a 5% CO2 incubator at 37°C for 48 h. • (3) CCK-8 was equilibrated to room temperature before use, and 10 µL of CCK-8 solution was added to each well. • (4) The plate was incubated in the incubator for 0.5-4 h in the dark, with the incubation time depending on experimental conditions such as cell type and density. • (5) The absorbance was measured at 450 nm using a microplate reader. • c) Data analysis Cell viability = [(As−Ab)/(Ac−Ab)] × 100% [formula] Inhibition% = [(Ac−As)/(Ac−Ab)] × 100% [formula] • As: absorbance of sample well (containing cells + medium + CCK-8 solution + drug solution); • Ac: absorbance of control well (containing cells + medium + CCK-8 solution); • Ab: absorbance of blank well (containing medium + CCK-8 solution); • The results were processed and analyzed using Excel and Graphpad Prism to obtain the IC50. Table 4: Test Results of Cell Killing in HL-60 for 48 h

T1 sequence (P30874 whole entry): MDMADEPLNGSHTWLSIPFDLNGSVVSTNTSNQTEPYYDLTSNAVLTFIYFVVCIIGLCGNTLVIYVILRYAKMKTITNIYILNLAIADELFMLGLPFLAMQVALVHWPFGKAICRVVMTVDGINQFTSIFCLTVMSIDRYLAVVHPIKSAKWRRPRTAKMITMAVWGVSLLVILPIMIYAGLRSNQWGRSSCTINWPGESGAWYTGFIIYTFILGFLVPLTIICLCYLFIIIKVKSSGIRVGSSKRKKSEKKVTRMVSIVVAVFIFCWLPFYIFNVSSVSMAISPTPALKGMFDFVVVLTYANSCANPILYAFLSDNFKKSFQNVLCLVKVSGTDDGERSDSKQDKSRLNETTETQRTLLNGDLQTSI

CC[C@H](C)[C@@H]([C@@H](CC(=O)N1CCC[C@H]1[C@H](OC)[C@@H](C)C(=O)N[C@H](C)[C@@H](O)c1ccccc1)OC)N(C)C(=O)[C@@H](NC(=O)[C@H](C(C)C)N(C)C(=O)OCc1ccc(NC(=O)[C@H](CCCNC(N)=O)NC(=O)[C@@H](NC(=O)CCCCCN2C(=O)CC(SC[C@H](NC(C)=O)C(=O)NCCOCCOCC(=O)N[C@@H](CCCNC(=N)N)C(=O)N[C@@H](CCCNC(=N)N)C(=O)N[C@@H](CC(C)C)C(=O)N[C@@H](Cc3ccccc3)C(=O)N[C@H]3CSSC[C@@H](C(=O)N[C@H](C(=O)N[C@@H](Cc4c[nH]c5ccccc45)C(=O)N[C@@H](CCCNC(=N)N)C(=O)N[C@@H](CC(=O)O)C(N)=O)[C@@H](C)O)NC(=O)[C@H]([C@@H](C)O)NC(=O)[C@H](CCCCN)NC(=O)[C@@H](Cc4c[nH]c5ccccc45)NC(=O)[C@H](Cc4ccc(O)cc4)NC3=O)C2=O)C(C)C)cc1)C(C)C (stereo partly drawn) [Example 1, Cys(MC-Val-Cit-PABC-MMAE)-AEEA-Arg-Arg-Leu-Phe-[Cys-Tyr-D-Trp-Lys-Thr-Cys]-Thr-Trp-Arg-Asp-NH2]
activity at 50 µM (SSTR2): 93.9% | Bottom (Inhibition at Lowest Point) (NCI-H69): 2.17 | Top (Inhibition at Highest Point) (NCI-H69): 79.37 | Bottom (Inhibition at Lowest Point) (HL-60): 1.71 | Top (Inhibition at Highest Point) (HL-60): 86.42

Reference: patent publication EP4772530A1, “PEPTIDE TARGETING SOMATOSTATIN RECEPTOR, DRUG CONJUGATE AND USE THEREOF” (Mainline Biosciences (Shanghai) Co., Ltd., priority 2023, dated 2025)
